According to paper PMC7934444, “A bifunctional enzyme belonging to cytochrome P450 family involved in the O-dealkylation and N-dealkoxymethylation toward chloroacetanilide herbicides in Rhodococcus sp. B2” (Microbial Cell Factories, 2021):

Biological target: T1, EthABDB2 (EthAB2 + EthBB2 + EthDB2) (Rhodococcus sp. B2, UniProt A0A8A6W4L4)
T1 construct: gene ethB; 43 kDa (EthA), 44 kDa (EthB), 10 kDa (EthD); mixed in vitro; EthB has ten residue differences from EthB of strain T3-1; with Ferredoxin reductase EthA; EthD protein (10 kDa; unknown function, acts as ferredoxin)
T1 sequence (A0A8A6W625 entry or part of it): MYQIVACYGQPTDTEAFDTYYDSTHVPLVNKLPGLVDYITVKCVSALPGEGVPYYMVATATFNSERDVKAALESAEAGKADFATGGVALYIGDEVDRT
T1 sequence (A0A8A6W4L4 entry or part of it): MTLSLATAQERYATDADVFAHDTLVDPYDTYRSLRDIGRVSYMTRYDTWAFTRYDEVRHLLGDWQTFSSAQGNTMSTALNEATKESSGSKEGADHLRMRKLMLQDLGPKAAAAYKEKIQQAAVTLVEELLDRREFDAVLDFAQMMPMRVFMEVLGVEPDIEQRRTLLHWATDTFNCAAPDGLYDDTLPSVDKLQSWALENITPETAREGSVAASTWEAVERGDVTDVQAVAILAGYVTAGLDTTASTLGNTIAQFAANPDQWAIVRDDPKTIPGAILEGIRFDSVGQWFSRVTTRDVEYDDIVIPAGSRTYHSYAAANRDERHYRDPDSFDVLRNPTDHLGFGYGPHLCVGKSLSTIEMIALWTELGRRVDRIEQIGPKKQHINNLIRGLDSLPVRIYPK
T1 sequence (A0A8A6W576 entry or part of it, further chain): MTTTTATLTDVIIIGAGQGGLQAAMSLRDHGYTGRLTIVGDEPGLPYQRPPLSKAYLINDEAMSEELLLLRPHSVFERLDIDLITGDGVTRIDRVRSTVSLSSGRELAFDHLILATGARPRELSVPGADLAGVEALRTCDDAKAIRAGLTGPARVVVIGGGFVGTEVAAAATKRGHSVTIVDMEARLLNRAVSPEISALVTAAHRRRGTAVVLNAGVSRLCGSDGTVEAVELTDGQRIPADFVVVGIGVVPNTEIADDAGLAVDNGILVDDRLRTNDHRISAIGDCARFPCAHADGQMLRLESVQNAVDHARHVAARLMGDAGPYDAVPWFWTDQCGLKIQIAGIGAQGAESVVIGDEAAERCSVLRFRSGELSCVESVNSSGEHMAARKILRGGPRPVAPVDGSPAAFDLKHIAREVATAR
Assay: reconstituted enzyme assay, HPLC substrate loss; GC-MS of product CMEPA
Assay type: biochemical
Conditions: 0.5 mM substrate; 1 mM NADH, 0.5 mM Fe2+, 1 mM MgCl2, 20 mM Tris-HCl pH 7.5, 30 °C; N-dealkoxymethylation

In the case of `CCc1cccc(C)c1N(COC(C)C)C(=O)CCl` [propisochlor], the “reconstituted enzyme assay, HPLC substrate loss; GC-MS of product CMEPA” value is reported as “EthABDB2 performed N-dealkoxymethylation to acetochlor, alachlor, propisochlor and butachlor, O-dealkylation to pretilachlor”.
